Data: ChEMBL document CHEMBL1131929, “New lead compounds for brassinosteroid biosynthesis inhibitors” (1999)

Legend:
Assay type in all cases: functional
Lepidium sativum [1] = test: Inhibitory activity on cress growth at a concentration of 0.5 uM
Lepidium sativum [2] = test: Inhibitory activity on cress growth at a concentration of 0.1 uM
Lepidium sativum [3] = test: Inhibitory activity on cress growth at a concentration of 1 uM
Oryza sativa = test: Compound was tested for its activity in rice stem elongation test at a concentration of 1 uM Stem length was measured after 7 days of transplantation
Lepidium sativum [4] = test: Inhibitory activity on cress growth at a concentration of 0.05 uM
Lepidium sativum [5] = test: Inhibitory activity on cress growth at a concentration of 5 uM

Structure (SMILES)	Hypocotyl length (Lepidium sativum [1]) [cm]	Hypocotyl length (Lepidium sativum [2]) [cm]	Hypocotyl length (Lepidium sativum [3]) [cm]	Rice stem length (Oryza sativa) [cm]	Hypocotyl length (Lepidium sativum [4]) [cm]	Hypocotyl length (Lepidium sativum [5]) [cm]
CC(O)(c1ccccc1)C(Cc1ccc(Cl)cc1)n1cncn1 (centres undefined)	1.25	~2.25	0.75	~2.7	~2	0.5
COc1cccc(/C=C(\C(O)C(C)(C)C)n2cncn2)c1 (centres undefined)	–	–	–	2.7	–	–
OC(c1ccccc1)C(Cc1ccc(Cl)cc1)n1cncn1 (centres undefined)	–	–	–	~2.6	–	–
CC(C)(C)C(O)/C(=C\c1ccc(Cl)cc1Cl)n1cncn1 (centres undefined)	–	–	–	1.2	–	–
CC(C)(C)C(O)/C(=C\c1ccc(Cl)cc1)n1cncn1 (centres undefined)	~0.51	~0.52	~0.51	1.4	1	0.5
CC(C)(C)C(O)C(CCc1ccccc1)n1cncn1 (centres undefined)	–	–	–	~2	–	–
CCCCOc1ccc(/C=C(\C(O)C(C)(C)C)n2cncn2)cc1 (centres undefined)	–	–	–	2.4	–	–
OC(/C(=C\c1ccc(Cl)cc1)n1cncn1)c1ccccc1 (centres undefined)	1	1.75	~0.75	2.7	~2	–
CC(C)(C)C(O)C(Cc1ccc(Cl)cc1)n1cncn1 (centres undefined)	–	–	–	1	–	–
CC(C)(C)C(O)C(CCCOc1ccccc1)n1cncn1 (centres undefined)	–	–	–	2.1	–	–
